Data set [1] concerns the target T1, rabbit PepT1 (Oryctolagus cuniculus, UniProt P36836).
T1 construct: expressed in transfected cells; host or cells: Xenopus laevis oocytes
T1 sequence (P36836 1-707): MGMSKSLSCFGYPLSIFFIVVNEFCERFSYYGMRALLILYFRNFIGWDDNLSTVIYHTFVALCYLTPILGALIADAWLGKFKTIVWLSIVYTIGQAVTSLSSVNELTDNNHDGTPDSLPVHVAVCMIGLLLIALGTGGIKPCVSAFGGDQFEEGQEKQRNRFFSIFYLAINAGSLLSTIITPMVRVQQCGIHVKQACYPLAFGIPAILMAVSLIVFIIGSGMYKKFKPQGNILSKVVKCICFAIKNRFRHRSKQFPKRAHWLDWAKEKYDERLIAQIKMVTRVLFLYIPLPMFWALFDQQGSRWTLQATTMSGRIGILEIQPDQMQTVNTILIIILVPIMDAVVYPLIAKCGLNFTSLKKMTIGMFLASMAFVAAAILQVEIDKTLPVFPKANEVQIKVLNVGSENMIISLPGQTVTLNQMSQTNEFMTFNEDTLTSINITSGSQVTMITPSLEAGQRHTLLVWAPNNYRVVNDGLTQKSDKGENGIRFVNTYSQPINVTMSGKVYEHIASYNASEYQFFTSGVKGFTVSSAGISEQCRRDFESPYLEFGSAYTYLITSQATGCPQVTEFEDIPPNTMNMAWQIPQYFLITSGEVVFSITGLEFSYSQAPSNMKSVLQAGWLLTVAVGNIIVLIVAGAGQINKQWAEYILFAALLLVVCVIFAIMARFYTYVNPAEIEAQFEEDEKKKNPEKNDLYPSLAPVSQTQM
Put plainly: Inhibition of radiolabelled D-Phe-L-Gln uptake in Xenopus laevis oocytes expressing rabbit PepT1 (binding affinity). Particulars: oocytes expressing rabbit PepT1, pH 5.5 assay buffer. The method, then: (§1) The Ki, trans-stimulation efflux and Caco-2 assays were performed as described previously.

The nature of data set [2]: Caco-2 monolayer apical to basolateral transport. Type of data set: in vitro ADME. Particulars: human, 2 mM prodrug, mean ± RSD, read-out: Overall Papp. How it is done: Prodrugs that generated robust trans-stimulated efflux in oocytes were further in a Caco-2 monolayer assay to investigate further the extent and rate of trans-epithelial transport. […] Apical to basolateral transport of 2 mM pro-drug, applied to the apical side, was monitored by high performance liquid chromatography (HPLC) after 1 h. The presence or absence of excess Gly-Gln allowed us to determine both the overall and PepT1 specific permeability (Table 2). […] The PepT1 mediated Papp values are of similar magnitude to known PepT1 (pro)drug substrates.
as §1
Background: Passage across Caco-2 layers is used to estimate intestinal permeability.

Data set [3] can be described thus: Oral pharmacokinetics in male Sprague-Dawley rats. Particulars: for Cmax / Tmax: rat plasma.
Experimental: Animals were given free access to food and water throughout the study and maintained under a 12-h light/dark cycle with temperature and humidity controlled according to Home Office regulations.
Blood samples (230 μL) were taken from the carotid artery at the following time points and placed in heparinized tubes: predose, 0.25, 0.5, 1, 2, 4, 8 and 24 h post dose. After the final time point the animals were sacrificed by an overdose of anaesthetic.
Blood samples were centrifuged to obtain the plasma, which was transferred to a separate labelled container. Aliquots from the individual time points for the three animals were analyzed singly. 80 μL of plasma was diluted with 20 μL of 1:1 ACN:water, then 800 μL chilled ACN was added, samples briefly vortex mixed and the centrifuged at 13000 rpm for 5 min at 4 °C. 500 μL of the resultant supernatant was further diluted with 500 μL water.
20 μL sample was analyzed by LC-MS/MS using a C18 5 μm Gemini UHPLC column running a gradient of 90% 0.04% acetic acid in water to 90% ACN over 3 min at a flow rate of 0.5 mL min^−1. MS data was acquired under multiple reaction monitoring conditions using a turbo spray ion source. The concentration in the plasma was determined by comparison to standard curves of the administered compound prepared in blank plasma matrices and treated in an identical manner to the samples.
In data set [4] the target is T1, rabbit PepT1. Put plainly: Trans-stimulation efflux of [3H]-D-Phe-L-Gln from rabbit PepT1 expressing oocytes. Type of data set: cell-based. Particulars: 10 mM prodrug, [3H]-D-Phe-L-Gln efflux, compared to GlyGln. The method, then: Trans-stimulation assays were performed using radiolabelled [^3H]-D-Phe-L-Gln efflux from rabbit PepT1 expressing oocytes in the presence of 10 mM pro-drug. As controls, 10 mM Gly-L-Gln (a standard PepT1 substrate) or buffer lacking a substrate (negative control) were used.
as §1

Data set [5] is described as follows: Stability in rat liver homogenate. Type of data set: in vitro ADME. The settings on record: 37 °C; for half-life at 0.5 mM: male, rat, rat liver homogenate, pH 7.5, 0.5 mM compound, read-out: Rat liver homgenate t1/2 (converted). The method, then: Fresh rat liver homogenate was prepared by isolating liver from euthanized male rats, according to approved Home Office procedures. The liver was chopped with scissors and rinsed with medium (0.25 M sucrose, 25 mM KCl, 5 mM MgCl2 and 50 mM Tris/HCl, pH7.5) to remove trapped blood. The liver was then homogenized in fresh medium with a loose-fitting dounce-type homogenizer and kept on ice. Liver homogenate was incubated with either 0.5 mM compound 1 or 3, or L-Trp-L-Ala as a positive control, at 37 °C. 250 μl aliquots of the homogenate were taken at 0, 0.25, 0.5, 1, 2, 6 and 24 h. The samples were precipitated by addition an equal volume of 3% perchloric acid and centrifugation at 17000g for 5 min. The perchloric acid was neutralized with 250 μl of 1 M KOH, and the sample subjected to a freeze/thaw cycle to precipitate the KClO4 salt before again being centrifuged. The supernatant was then analyzed by HPLC as for the Caco-2 permeability studies, and the half-life of the compounds calculated according to the method of Vig et al..

For data set [6], the target named is T1, rabbit PepT1. Details: method as in PMID 19262922. The settings on record: 10 mM prodrug, [3H]-D-Phe-L-Gln efflux; previously reported data ref 16; cited from earlier work.
For data set [7] the following is noted: rats; cited from earlier work.
The conditions of data set [8]: humans; cited from earlier work.
The conditions of data set [9]: pH 5.5.

Where a name gives a salt, the structure may show the parent alone. Read-outs that look alike come from different tables or passages of the source. Peptide text beside a SMILES is read from it.

For orientation: melting point means the temperature, or range, at which the solid turns liquid. Usually Ki stands for a measure of affinity in units of concentration, obtained from inhibition or displacement. High values mean a looser hold on the target, low ones a stronger hold on the target. The Papp is a coefficient for how fast a substance crosses the barrier. As a reminder, the AUC is the area under the concentration-time curve, a measure of exposure. Low values mean less exposure, high ones more exposure. A word on the Cmax: it is the highest concentration seen after dosing. One may read the Tmax as the time at which the peak concentration occurs.

Turning to `CC(=O)N[C@H]1[C@H]([C@H](O)[C@H](O)COC(=O)C[C@H](NC(=S)[C@H](C)N)C(=O)O)OC(C(=O)O)=C[C@@H]1NC(=N)N` (as salt: salt) (hydrate or solvate) [Compound 9, (4S,5R,6R)-5-acetamido-6-((1R,2R)-3-((S)-3-((S)-2-aminopropanethioamido)-3-carboxypropanoyloxy)-1,2-dihydroxypropyl)-4-guanidino-5,6-dihydro-4H-pyran-2-carboxylic acid], the melting point was 210 to 212 °C.
On to `C[C@H](N)C(=S)N[C@@H](COC(=O)C[C@@H](CN)c1ccc(Cl)cc1)C(=O)O` (as salt: salt) (hydrate or solvate) [Compound 10, (S)-3-((R)-4-amino-3-(4-chlorophenyl)butanoyloxy)-2-((S)-2-aminopropanethioamido)propanoic acid], for which the melting point lay within 112 to 115 °C.
For the molecule `COc1c(C)c2c(c(O)c1C/C=C(\C)CCC(=O)OC[C@H](NC(=S)[C@H](C)N)C(=O)O)C(=O)OC2` (as salt: salt) (hydrate or solvate) [Compound 11, (S)-2-((S)-2-aminopropanethioamido)-3-((E)-6-(4-hydroxy-6-methoxy-7-methyl-3-oxo-1,3-dihydroisobenzofuran-5-yl)-4-methylhex-4-enoyloxy)propanoic acid], the melting point lay within 140 to 143 °C.
The same measure, in the same setting: with `CC(C)NC[C@@H](COc1ccc(CC(N)=O)cc1)OC(=O)C[C@H](NC(=S)[C@H](C)N)C(=O)O` (as salt: salt) [Compound 8, (S)-4-((S)-3-(4-(2-amino-2-oxoethyl)phenoxy)-1-(isopropylamino)propan-2-yloxy)-2-((S)-2-aminopropanethioamido)-4-oxobutanoic acid] the figure was 118 to 121 °C.
Take `CC(C)Cc1ccc([C@@H](C)C(=O)OC[C@H](NC(=S)[C@H](C)N)C(=O)O)cc1` [Compound 1]: the Ki in data set [1] is 260 ± 30 µM. The apparent permeability (Papp) at 1 h, 2 mM in [2] came out at 3.7 ± 0.2 ×10⁻⁶ cm/s. The AUC in [3] (male, Sprague-Dawley, rat, plasma, po, 10 mg/kg) came to 500 ± 100 ng·h/mL. The molecule also gave a Cmax in [3] (male, Sprague-Dawley, rat, plasma, po, 10 mg/kg, CMax, 1 at 10 mg kg^−1 oral, assayed compound intact 1) of 200 ± 40 ng/mL. Further, the Tmax in [3] (male, Sprague-Dawley, rat, plasma, po, 10 mg/kg, 1 at 10 mg kg^−1 oral, assayed compound intact 1) stood at 1 h. Besides, the “Trans-stimulated efflux?” value in data set [4] is “Yes”. In addition, the half-life at 0.5 mM in data set [5] was over 17 h.
With `C[C@H](N)C(=S)N[C@@H](COC(=O)CC1(CN)CCCCC1)C(=O)O` [Compound 2, (S)-3-[2-(1-Aminomethyl-cyclohexyl)-acetoxy]-2-((S)-2-amino-thiopropionylamino)-propionic acid], in data set [1], the Ki was 1010 ± 330 µM. Moreover, in [2], the apparent permeability (Papp) at 1 h, 2 mM came out at 0.6 ± 0.1 ×10⁻⁶ cm/s. The “Trans-stimulated efflux?” value in [4] was “Yes”.
For `CC(C)c1cccc(C(C)C)c1OC(=O)C[C@H](NC(=S)[C@H](C)N)C(=O)O` [Compound 3, (S)-2-((S)-2-Amino-thiopropionylamino)-succinic acid 4-(2,6-diisopropyl-phenyl) ester], the Ki in data set [1] worked out at 920 ± 190 µM. Further, the peak concentration (Cmax) stood at 16300 ± 1800 ng/mL in [3] (3 at 7.6 mg kg^−1 oral, assayed compound intact 3) and 16700 ng/mL in [3] (male, Sprague-Dawley, rat, plasma, po, 7.6 mg/kg, CMax, 3 at 7.6 mg kg^−1 oral, assayed compound intact 3). Further, in data set [3] (male, Sprague-Dawley, rat, plasma, po, 7.6 mg/kg), the AUC stood at 3200 ± 1400 ng·h/mL. For the same molecule, the Tmax in [3] (male, Sprague-Dawley, rat, plasma, po, 7.6 mg/kg, 3 at 7.6 mg kg^−1 oral, assayed compound intact 3) was 5.2 ± 0.8 h. Moreover, the “Trans-stimulated efflux?” value in [4] was “Yes”. Moreover, in data set [5] (0.5 mM compound), the “Rat liver homgenate t1/2” value came to 7.3 h. Further, the half-life at 0.5 mM in data set [5] was 7 h.
For the molecule `COc1ccc2cc(CC/C(C)=N/OCCOC(=O)C[C@H](NC(=S)[C@H](C)N)C(=O)O)ccc2c1` [Compound 6], in [6], the “Trans-stimulated efflux?” value is “Yes”.
In turn, `CC(C)NC[C@@H](COc1ccc(CC(N)=O)cc1)OC(=O)C[C@H](NC(=S)[C@H](C)N)C(=O)O` [Compound 8, (S)-4-((S)-3-(4-(2-amino-2-oxoethyl)phenoxy)-1-(isopropylamino)propan-2-yloxy)-2-((S)-2-aminopropanethioamido)-4-oxobutanoic acid] returned a Ki in [1] of 440 ± 150 µM. Moreover, the “Trans-stimulated efflux?” value in [4] is on record as “No”.
In data set [1], `CC(=O)N[C@H]1[C@H]([C@H](O)[C@H](O)COC(=O)C[C@H](NC(=S)[C@H](C)N)C(=O)O)OC(C(=O)O)=C[C@@H]1NC(=N)N` [Compound 9, (4S,5R,6R)-5-acetamido-6-((1R,2R)-3-((S)-3-((S)-2-aminopropanethioamido)-3-carboxypropanoyloxy)-1,2-dihydroxypropyl)-4-guanidino-5,6-dihydro-4H-pyran-2-carboxylic acid] came in with a Ki of 130 ± 20 µM. For the same molecule, the “Trans-stimulated efflux?” value in data set [4] was “No”.
The like results for `C[C@H](N)C(=S)N[C@@H](COC(=O)C[C@@H](CN)c1ccc(Cl)cc1)C(=O)O` [Compound 10, (S)-3-((R)-4-amino-3-(4-chlorophenyl)butanoyloxy)-2-((S)-2-aminopropanethioamido)propanoic acid] were, in that order, 1870 ± 260 µM and “No”.
In data set [1], `COc1c(C)c2c(c(O)c1C/C=C(\C)CCC(=O)OC[C@H](NC(=S)[C@H](C)N)C(=O)O)C(=O)OC2` [Compound 11, (S)-2-((S)-2-aminopropanethioamido)-3-((E)-6-(4-hydroxy-6-methoxy-7-methyl-3-oxo-1,3-dihydroisobenzofuran-5-yl)-4-methylhex-4-enoyloxy)propanoic acid] had a Ki of 210 ± 80 µM. The “Trans-stimulated efflux?” value in data set [4] was “only weakly triggered efflux and Weak”.
Molecule `C[C@H](NC(=O)[C@@H](N)Cc1ccccc1)C(N)=S` [FSA, PheΨ[CS-NH]-Ala, reference compound] registered a Ki in data set [1] of 320 ± 80 µM. The apparent permeability (Papp) at 1 h, 2 mM in [2] is 3 ± 0.5 ×10⁻⁶ cm/s. Moreover, in data set [4], the “Trans-stimulated efflux?” value was “No”.
`C[C@H](NC(=O)[C@@H](N)Cc1c[nH]c2ccccc12)C(=O)O` [L-Trp-L-Ala, reference compound] (H-Trp-Ala-OH): the half-life at 0.5 mM in data set [5] is 0.15 h.
Consider `CC(C)c1cccc(C(C)C)c1O` [propofol], for which the Oral bioavailability entry in data set [7] and in [8] was “no oral bioavailability” in each case.
For “(S)-2-((S)-2-Amino-thiopropionylamino)-succinic acid 4-(2-{2-[2-(2-acetoxy-benzoyloxy)-ethoxy]-ethoxy}-ethyl) ester [Compound 4]”, the “Stability in assay buffer” value in [9] is given as “limited stability”.
The same measure, in the same setting: in the case of “(S)-2-((S)-2-Amino-thiopropionylamino)-succinic acid 4-[2-(2-amino-6-oxo-1,6-dihydro-purin-9-ylmethoxy)-ethyl] ester [Compound 5]” it was “limited stability”.

The record behind these values is publication PMC6107785, “Thiodipeptides targeting the intestinal oligopeptide transporter as a general approach to improving oral drug delivery” (European Journal of Medicinal Chemistry, 2018).
